Data taken from patent US12605350B2, “Composition for preventing, ameliorating, or treating disease caused by nitration of tyrosine in proteins comprising tyrosine as effective component” (INDUSTRY-ACADEMIC COOPERATION FOUNDATION GYEONGSANG …, priority 2020, dated 2026).
Entries after “also recorded” stand apart in the source; their conditions may differ.

Experiments:
[1] = tested on: acute renal failure caused by kidney ischemia or reperfusion injury; assay: plasma creatinine (Jaffe method), renal ischemia and reperfusion; assay type: in vivo, mouse; settings: L-tyrosine 100 mg/kg oral for 4 days, 24 hours after ischemia and reperfusion
Protocol: C57BL/6 male mouse (23 to 25 g, KOATECH, South Korea) was allowed to have free access to diets and water in sterile breeding room with constant temperature and humidity. The animals were divided into 3 test groups, i.e., 1) Control group (Sham), 2) Renal ischemia having treatment with prepared solvent and induced reperfusion group (CMC+IR), and 3) Renal ischemia having treatment with L-tyrosine and induced reperfusion group (L-Tyr+IR). L-Tyrosine (100 mg/kg) was suspended in 0.5% CMC (carboxymethyl cellulose). The animal was orally administered, once a day for 4 days, with L-tyrosine or the prepared solvent CMC. Thirty minutes after the oral administration on Day 4, renal ischemia was caused. Specifically, the animal abdomen was cut and renal pedicles at both sides were clamped using a Muller atraumatic vascular clamp to cause renal ischemia. […] Blood collected in the above was centrifuged for 15 minutes at 3,000 rpm to separate plasma, and blood creatinine was measured by using Jaffe method. With regard to Jaffe method, based on a difference between the absorbance measured at a wavelength of 510 nm after the reaction of plasma sample with picric acid and the absorbance measured after completing the reaction using 60% acetic acid, the amount of creatinine was calculated and it was expressed in unit of mg/dl.

[2] = tested on: chronic immobilization stress group (STR); assay: OFT (open field test) after chronic immobilization stress; assay type: in vivo, mouse; settings: tyrosine-diet (TD, 181.2 mg/kg) compared to normal diet (ND)
Protocol: The animal models were divided into two groups (i.e., normal group and stress group). The animal of stress group was individually brought by force to a restrainer for 2 hours every day (i.e., between 2 PM and 4 PM) so that it was applied with chronic immobilization stress for 15 days. Change in bodyweight and food intake amount were measured every other day. The normal group and stress group were divided again into a normal diet group and a tyrosine-supplemented diet group (181.2 mg/kg), and then fed. OFT (open field test) was carried out using a rectangular box (60×60×20 cm). Mouse was placed at the center area of box (30×30 cm), and the mouse movement was followed for 5 minutes and total travel distance, center area duration, and frequency of center area entries were measured.

[3] = tested on: MnSOD; assay: activity of MnSOD, renal ischemia and reperfusion; assay type: in vivo, mouse; settings: L-tyrosine 100 mg/kg oral for 4 days, IR
Protocol: (§1) C57BL/6 male mouse (23 to 25 g, KOATECH, South Korea) was allowed to have free access to diets and water in sterile breeding room with constant temperature and humidity. The animals were divided into 3 test groups, i.e., 1) Control group (Sham), 2) Renal ischemia having treatment with prepared solvent and induced reperfusion group (CMC+IR), and 3) Renal ischemia having treatment with L-tyrosine and induced reperfusion group (L-Tyr+IR).
(§2) L-Tyrosine (100 mg/kg) was suspended in 0.5% CMC (carboxymethyl cellulose). The animal was orally administered, once a day for 4 days, with L-tyrosine or the prepared solvent CMC. Thirty minutes after the oral administration on Day 4, renal ischemia was caused. Specifically, the animal abdomen was cut and renal pedicles at both sides were clamped using a Muller atraumatic vascular clamp to cause renal ischemia. After 25 minutes of blood ischemia, the clamp was removed followed by reperfusion. The control group (Sham) received the same operational procedures as above except the ischemia using clamp. Twenty-four hours after the reperfusion, the test animal was sacrificed, blood was collected from the heart, and the tissues were harvested.

[4] = tested on: mouse model of chronic immobilization stress; assay: object location recognition test (OLT); assay type: in vivo; settings: D-Tyr-containing diet (181 mg D-Tyr/kg AIN-93G), chronic stress 14 days
Protocol: Twenty-eight C57BL/6 male mice (7-week old) were divided into two groups, each group provided for 1 week with a normal diet or D-tyrosine (D-Tyr)-containing diet (181 mg D-Tyr/kg AIN-93G).
Once the animals become 8-week old, they were applied with chronic immobilization stress (CIS) under light condition of 200 lux, 2 hours per day for 2 weeks. The animals were divided into the control group (CTL), D-Tyr diet control group (CTL+D-Tyr), chronic stress group (STR), and D-Tyr diet chronic stress group (STR+D-Tyr), in which each group consists of 7 animals.
Upon the completion of the CIS for 2 weeks, a cognitive function test was carried out. To compare the cognitive function between the group provided with D-Tyr-containing diet over the entire test period including habituation period and normal feed diet group, an object recognition test (ORT) and an object location recognition test (OLT) for testing long-term memory skills were carried out.
OLT: 24 Hours after carrying out ORT, location of a familiar object was changed, and the animal was allowed to explore for 5 minutes. According to the same method as the aforementioned object recognition function index (DI), ratio of time spent for exploring an object with changed location compared to the entire time for exploring an object was calculated. Accordingly, object location recognition function index was obtained.

[5] = tested on: Cu/Zn SOD; assay: activity of Cu/Zn SOD, renal ischemia and reperfusion; assay type: in vivo, mouse; settings: L-tyrosine 100 mg/kg oral for 4 days, IR
Protocol: as §1, §2

[6] = target: T1, glutamine synthetase (GS) (Mus musculus, UniProt P15105); assay: in vitro GS activity of PFC tissue lysate treated with nitrogen peroxide (PN) and tyrosine; assay type: biochemical; settings: PFC tissue lysate (10 μg), 0.0031 to 0.45 mg/ml tyrosine, nitrogen peroxide (PN) 10 times the tissue lysate
T1 construct: PFC sample was weighed first, and, after lysis of the tissues by using Bullet homogenizer, subjected to centrifuge; from tissue; host or cells: mouse prefrontal cortex (PFC) lysate
Protocol: Each of the blood and PFC sample was obtained from a mouse anesthetized with CO2 gas. Specifically, mouse blood was collected between 9 AM and 11 AM and stored in a K3EDTA-coated vacuum container. Plasma was obtained by centrifuge for 10 minutes at 4° C., 500×g. PFC sample was weighed first, and, after lysis of the tissues by using Bullet homogenizer, subjected to centrifuge for 20 minutes at 4° C., 12,000 rpm. Thus-obtained plasma and tissue lysate were kept at −80° C. until use.
10 μg of the lysate were admixed with […] of GS assay buffer solution (50 mM imidazole-HCl, pH 6.8, 50 mM L-glutamine, 25 mM hydroxylamine, 25 mM sodium arsenate, 2 mM MnCl2 and 0.16 mM ADP), followed by incubation for 1 hour at 37° C.
After the mixing, the reaction was terminated by adding 50 μl of stop buffer solution (90 mM FeCl3, 1.8 N HCl and 1.45% trichloroacetic acid), and then γ-glutamylhydroxamate synthesized from a reaction between glutamine and hydroxylamine as catalyzed by GS was measured at 560 nm using a microplate reader.
Moreover, after PFC (prefrontal cortex) tissue lysate (10 μg) was added and mixed with 0.0031 to 0.45 mg/ml tyrosine, incubated on ice for 10 minutes, and added with nitrogen peroxide (PN), in an amount that is 10 times the tissue lysate, followed by incubation for 10 minutes, in vitro GS activity was examined.

T1 sequence (P15105 2-373 limits assumed): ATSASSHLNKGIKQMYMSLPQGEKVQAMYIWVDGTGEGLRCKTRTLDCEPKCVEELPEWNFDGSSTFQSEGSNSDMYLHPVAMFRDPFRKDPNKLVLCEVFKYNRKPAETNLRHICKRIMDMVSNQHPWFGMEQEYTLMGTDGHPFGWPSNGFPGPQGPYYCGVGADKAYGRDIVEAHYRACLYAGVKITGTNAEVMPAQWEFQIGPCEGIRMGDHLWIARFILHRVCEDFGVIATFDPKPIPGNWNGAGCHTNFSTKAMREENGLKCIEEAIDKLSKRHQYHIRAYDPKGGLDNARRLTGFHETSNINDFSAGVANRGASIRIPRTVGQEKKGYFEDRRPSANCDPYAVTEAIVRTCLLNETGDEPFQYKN

Row | SMILES | creatinine in plasma [1] | center area duration [2] | frequency of center area entries [2] | travel distance [2] | activity of MnSOD [3] | cognitive function according to OTL (object location recognition function index) [4] | activity of Cu/Zn SOD [5] | in vitro GS activity [6]
1 | N[C@@H](Cc1ccc(O)cc1)C(=O)O [L-tyrosine] | suppressed | – | – | – | – | – | – | –
2 | N[C@@H](Cc1ccc(O)cc1)C(=O)O [tyrosine] | – | higher | higher | higher | again recovered | maintained at the level of the control group | again recovered | statistically significant increase in GS activity; also recorded: higher GS activity is obtained in accordance with an increase in the tyrosine concentration
